Reference: patent US10968210B2, “Diamino-alkylamino-linked arylsulfonamide compounds with selective activity in voltage-gated sodium channels” (Merck Sharp & Dohme Corp., priority 2016, dated 2021)

Columns and labels:
[1] = target: T1, human Nav 1.7 channels stably expressed in HEK 293 cells (Homo sapiens, UniProt Q15858); test: IonWorks Quattro automated patch-clamp, inactivated state block of Nav 1.7; type: cell-based; conditions: double-pulse protocol, HEK 293 cells held at -100 mV, read-out: potency for the Nav 1.7 sodium ion channel (IC50, IonWorks)
T1 construct: expressed in transfected cells; host or cells: HEK 293
T1 sequence (Q15858 whole entry): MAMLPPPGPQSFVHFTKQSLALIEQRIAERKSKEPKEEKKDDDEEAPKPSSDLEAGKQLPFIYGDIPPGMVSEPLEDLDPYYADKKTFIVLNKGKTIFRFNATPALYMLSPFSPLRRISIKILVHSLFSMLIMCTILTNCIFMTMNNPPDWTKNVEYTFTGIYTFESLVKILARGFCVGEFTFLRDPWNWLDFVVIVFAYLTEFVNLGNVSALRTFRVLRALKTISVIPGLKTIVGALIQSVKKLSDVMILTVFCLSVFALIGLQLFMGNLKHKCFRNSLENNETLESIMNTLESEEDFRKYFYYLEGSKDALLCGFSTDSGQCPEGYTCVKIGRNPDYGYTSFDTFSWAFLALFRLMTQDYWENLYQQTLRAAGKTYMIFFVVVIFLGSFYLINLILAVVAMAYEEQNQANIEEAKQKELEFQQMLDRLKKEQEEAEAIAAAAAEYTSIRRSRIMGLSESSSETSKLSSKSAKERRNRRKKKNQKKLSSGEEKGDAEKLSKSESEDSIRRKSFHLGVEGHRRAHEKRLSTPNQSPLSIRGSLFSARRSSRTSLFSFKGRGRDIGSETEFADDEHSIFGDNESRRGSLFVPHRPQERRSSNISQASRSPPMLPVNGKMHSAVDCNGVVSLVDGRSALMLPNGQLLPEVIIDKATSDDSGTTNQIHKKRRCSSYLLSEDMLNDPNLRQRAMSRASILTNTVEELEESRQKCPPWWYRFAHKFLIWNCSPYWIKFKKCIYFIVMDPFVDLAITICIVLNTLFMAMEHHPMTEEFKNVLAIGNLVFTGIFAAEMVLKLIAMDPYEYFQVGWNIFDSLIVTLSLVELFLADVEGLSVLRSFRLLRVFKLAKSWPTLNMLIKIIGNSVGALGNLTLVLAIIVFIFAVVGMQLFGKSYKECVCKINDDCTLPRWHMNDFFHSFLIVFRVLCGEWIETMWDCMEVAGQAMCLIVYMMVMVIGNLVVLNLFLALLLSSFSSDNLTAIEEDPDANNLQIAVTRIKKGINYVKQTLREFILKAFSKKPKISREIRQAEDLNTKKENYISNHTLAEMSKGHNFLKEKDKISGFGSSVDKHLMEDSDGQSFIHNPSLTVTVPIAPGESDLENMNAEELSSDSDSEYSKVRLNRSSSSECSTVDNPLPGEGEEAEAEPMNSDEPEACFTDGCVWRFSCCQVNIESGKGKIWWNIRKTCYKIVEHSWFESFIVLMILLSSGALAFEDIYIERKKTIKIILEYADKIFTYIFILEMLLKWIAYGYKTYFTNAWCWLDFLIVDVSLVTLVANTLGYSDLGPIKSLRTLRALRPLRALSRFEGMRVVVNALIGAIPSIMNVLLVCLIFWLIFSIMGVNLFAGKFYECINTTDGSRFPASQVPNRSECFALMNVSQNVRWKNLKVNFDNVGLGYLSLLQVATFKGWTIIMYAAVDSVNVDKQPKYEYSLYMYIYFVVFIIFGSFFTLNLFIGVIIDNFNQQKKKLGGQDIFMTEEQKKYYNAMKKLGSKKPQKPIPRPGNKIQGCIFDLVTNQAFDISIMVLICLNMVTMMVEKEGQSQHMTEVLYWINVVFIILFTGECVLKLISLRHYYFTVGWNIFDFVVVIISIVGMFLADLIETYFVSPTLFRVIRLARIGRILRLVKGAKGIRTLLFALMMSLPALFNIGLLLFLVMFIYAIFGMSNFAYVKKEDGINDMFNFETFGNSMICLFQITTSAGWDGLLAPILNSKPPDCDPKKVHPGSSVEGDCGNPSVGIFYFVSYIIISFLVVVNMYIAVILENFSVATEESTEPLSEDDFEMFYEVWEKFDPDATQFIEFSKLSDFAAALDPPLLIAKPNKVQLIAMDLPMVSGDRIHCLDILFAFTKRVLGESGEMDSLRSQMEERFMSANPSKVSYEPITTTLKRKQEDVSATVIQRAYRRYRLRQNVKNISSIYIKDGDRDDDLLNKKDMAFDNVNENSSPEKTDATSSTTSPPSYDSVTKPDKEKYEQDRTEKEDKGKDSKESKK
Experimental: (§1) IonWorks® Experimental Procedure
(§2) Compounds were tested on human Nav 1.7 and Nav 1.5 channels stably expressed in HEK 293 cells. Sodium current measurements on IonWorks Quattro: An automated patch-clamp assay on the IonWorks Quattro platform (Molecular Devices) was used to measure state-dependent inhibition of human Nav 1.7 and Nav 1.5 channels. Cells were sealed on a planar substrate using the Population Patch Plate (PPC) technology. Electrical access was obtained using both nystatin and amphotericin. A double-pulse protocol was used for the determination of IC50 values for inactivated state block. Nav 1.7 and Nav 1.5 expressing cells were voltage clamped at −100 mV and −110 mV, respectively. A depolarizing prepulse to −10 mV (Nav 1.7) or −30 mV (Nav 1.5) for 1000 ms followed by a 10 ms repolarization to ˜100 mV (Nav1.7) or −110 mV (Nav 1.5) was given to generate fractional channel inactivation of ˜50%, followed by a 10 ms test pulse to −10 mV (Nav 1.7) or −30 mV (Nav 1.5) to measure peak current in control conditions and after compound addition. The following recording solutions were used (mM). External: 150 NaCl, 2 CaCl2, 5 KCl, 1 Mg Cl2, 10 HEPES, 12 Dextrose; internal: 120 CsF, 30 CsCl, 10 EGTA, 5 HEPES, 5 NaF, 2 MgCl2.
(§3) For all electrophysiology experiments, offline analysis was used to determine percent inhibition as a function of drug concentration. IC50 values were determined by fitting to the Hill equation.
(§4) The various compounds in Examples 1 through 4 and Tables 1 through 3 exemplified above were assayed for activity and selectivity using the foregoing IonWorks® technique. The results are reported in the following paragraph in a format expressing the identification of the compound with reference Example and compound (e.g. Ex 1-9 is Example 1, compound 9) followed by the observed potency in nM and the ratio of Nav1.7 potency: Nav1.5 potency as described here. Thus, Ex1-9: 1.7=65/ratio=641 identifies compound Example 1, compound 9 as having 65 nM potency for the Nav 1.7 sodium ion channel (as measured by IonWorks®) and a ratio of 641 Nav 1.7: Nav 1.5 potency, determined by IonWorks® measurement.

[2] = target: T2, human Nav 1.5 channels stably expressed in HEK 293 cells (Homo sapiens, UniProt Q14524); test: IonWorks Quattro automated patch-clamp, inactivated state block of Nav 1.5 (reported as ratio to Nav 1.7 potency); type: cell-based; conditions: selectivity for Nav 1.7 over Nav 1.5, both by IonWorks
T2 construct: expressed in transfected cells; host or cells: HEK 293
T2 sequence (Q14524 whole entry): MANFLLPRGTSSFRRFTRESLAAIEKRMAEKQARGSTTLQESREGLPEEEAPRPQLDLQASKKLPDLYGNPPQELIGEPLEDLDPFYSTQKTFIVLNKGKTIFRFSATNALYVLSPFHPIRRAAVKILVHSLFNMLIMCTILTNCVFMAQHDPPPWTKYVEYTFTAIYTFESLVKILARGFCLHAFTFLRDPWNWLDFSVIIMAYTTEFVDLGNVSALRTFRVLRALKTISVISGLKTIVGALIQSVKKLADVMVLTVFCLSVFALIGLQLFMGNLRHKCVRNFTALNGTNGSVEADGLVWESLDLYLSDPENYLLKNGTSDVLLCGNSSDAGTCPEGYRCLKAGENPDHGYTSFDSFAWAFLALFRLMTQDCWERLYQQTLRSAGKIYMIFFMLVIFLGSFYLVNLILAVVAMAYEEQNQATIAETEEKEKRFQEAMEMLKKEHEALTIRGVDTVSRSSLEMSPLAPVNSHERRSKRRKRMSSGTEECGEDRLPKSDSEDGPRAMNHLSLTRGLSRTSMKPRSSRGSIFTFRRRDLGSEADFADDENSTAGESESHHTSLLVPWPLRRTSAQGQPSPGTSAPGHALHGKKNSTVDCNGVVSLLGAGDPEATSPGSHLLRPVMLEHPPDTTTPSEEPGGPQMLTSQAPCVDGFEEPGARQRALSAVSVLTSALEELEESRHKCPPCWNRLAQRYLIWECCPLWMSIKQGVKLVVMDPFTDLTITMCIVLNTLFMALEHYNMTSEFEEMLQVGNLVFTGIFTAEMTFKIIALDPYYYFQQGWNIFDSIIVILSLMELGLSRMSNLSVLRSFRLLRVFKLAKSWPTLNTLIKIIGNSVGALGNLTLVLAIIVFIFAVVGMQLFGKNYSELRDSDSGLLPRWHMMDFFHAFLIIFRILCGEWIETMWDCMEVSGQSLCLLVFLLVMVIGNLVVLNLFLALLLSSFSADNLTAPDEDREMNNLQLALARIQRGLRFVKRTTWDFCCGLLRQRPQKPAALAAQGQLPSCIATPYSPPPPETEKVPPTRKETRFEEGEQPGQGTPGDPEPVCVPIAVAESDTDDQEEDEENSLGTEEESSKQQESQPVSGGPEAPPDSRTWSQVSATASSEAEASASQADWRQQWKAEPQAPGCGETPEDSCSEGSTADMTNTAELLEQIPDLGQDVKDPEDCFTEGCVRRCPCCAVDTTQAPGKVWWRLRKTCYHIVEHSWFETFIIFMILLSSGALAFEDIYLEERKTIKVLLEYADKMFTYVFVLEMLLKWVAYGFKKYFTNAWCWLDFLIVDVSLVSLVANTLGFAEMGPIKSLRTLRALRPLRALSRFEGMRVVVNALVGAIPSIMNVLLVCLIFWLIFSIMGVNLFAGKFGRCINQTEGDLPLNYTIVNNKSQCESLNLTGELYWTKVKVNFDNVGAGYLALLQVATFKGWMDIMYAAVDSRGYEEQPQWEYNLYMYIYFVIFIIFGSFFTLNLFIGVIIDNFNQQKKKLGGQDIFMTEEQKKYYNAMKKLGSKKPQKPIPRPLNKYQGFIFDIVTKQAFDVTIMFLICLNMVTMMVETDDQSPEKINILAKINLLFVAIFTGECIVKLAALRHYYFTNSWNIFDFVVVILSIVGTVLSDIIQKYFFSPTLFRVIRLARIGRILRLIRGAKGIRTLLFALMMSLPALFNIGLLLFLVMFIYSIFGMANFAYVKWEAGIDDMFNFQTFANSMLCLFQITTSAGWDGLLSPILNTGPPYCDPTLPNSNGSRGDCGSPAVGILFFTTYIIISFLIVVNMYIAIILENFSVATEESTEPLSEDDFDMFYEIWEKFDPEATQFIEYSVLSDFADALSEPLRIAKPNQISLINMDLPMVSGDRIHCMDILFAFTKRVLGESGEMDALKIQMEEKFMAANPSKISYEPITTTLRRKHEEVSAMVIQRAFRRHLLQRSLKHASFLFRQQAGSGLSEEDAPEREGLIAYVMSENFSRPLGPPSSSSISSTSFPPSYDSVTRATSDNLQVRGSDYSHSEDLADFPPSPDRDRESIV
Experimental: as §1, §2, §3, §4

Compound	IC50 [1]	ratio of Nav 1.7 : Nav 1.5 potency (IonWorks) [2]
O=S(=O)(Nc1nccs1)c1cc(Cl)c(NCCCCNC2CNCC(c3ccccc3)C2)cc1F (centres unmarked) [Ex 1-31, 5-chloro-2-fluoro-4-({4-[(5-phenylpiperidin-3-yl)amino]butyl}amino)-N-1,3-thiazol-2-ylbenzenesulfonamide]	37 nM	> 890
N[C@@H]1CCN(CCCCNc2cc(F)c(S(=O)(=O)Nc3nccs3)cc2Cl)C1 [Ex 1-36, 4-({4-[(3R)-3-aminopyrrolidin-1-yl]butyl}amino)-5-chloro-2-fluoro-N-1,3-thiazol-2-ylbenzenesulfonamide]	18 nM	> 1830
O=S(=O)(Nc1nccs1)c1cc(Cl)c(NCCCCN2CCCC3(CCCN3)C2)cc1F (centres unmarked) [Ex 1-39, 5-chloro-4-{[4-(1,7-diazaspiro[4.5]dec-7-yl)butyl]amino}-2-fluoro-N-1,3-thiazol-2-ylbenzenesulfonamide]	130 nM	> 250
NCC1CCN(CCCCNc2cc(F)c(S(=O)(=O)Nc3nccs3)cc2Cl)C1 (centres unmarked) [Ex 1-47, 4-({4-[3-(aminomethyl)pyrrolidin-1-yl]butyl}amino)-5-chloro-2-fluoro-N-1,3-thiazol-2-ylbenzenesulfonamide]	22 nM	> 1500
O=S(=O)(Nc1nccs1)c1cc(Cl)c(NCCCCN2CCC3CNCC3C2)cc1F (centres unmarked) [Ex 1-48, 5-chloro-2-fluoro-4-{[4-(octahydro-5H-pyrrolo[3,4-c]pyridin-5-yl)butyl]amino}-N-1,3-thiazol-2-ylbenzenesulfonamide]	23 nM	> 1434
NC1CCN(CCCCNc2cc(F)c(S(=O)(=O)Nc3nccs3)cc2Cl)CC1 [Ex 1-49, 4-{[4-(4-aminopiperidin-1-yl)butyl]amino}-5-chloro-2-fluoro-N-1,3-thiazol-2-ylbenzenesulfonamide]	33 nM	> 1000
NCC1(c2ccccc2)CCN(CCCCNc2cc(F)c(S(=O)(=O)Nc3nccs3)cc2Cl)C1 (centres unmarked) [Ex 1-50, 4-({4-[3-(aminomethyl)-3-phenylpyrrolidin-1-yl]butyl}amino)-5-chloro-2-fluoro-N-1,3-thiazol-2-ylbenzenesulfonamide]	46 nM	> 717
NCC1CN(CCCCNc2cc(F)c(S(=O)(=O)Nc3nccs3)cc2Cl)C1 [Ex 1-51, 4-({4-[3 (aminomethyl)azetidin-1-yl]butyl}amino)-5-chloro-2-fluoro-N-1,3-thiazol-2-ylbenzenesulfonamide]	15 nM	> 2200
O=S(=O)(Nc1nccs1)c1cc(Cl)c(NCCCCN2CCC3CCC(C2)N3)cc1F (centres unmarked) [Ex 1-52, 5-chloro-4-{[4-(3,9-diazabicyclo[4.2.1]non-3-yl)butyl]amino}-2-fluoro-N-1,3-thiazol-2-ylbenzenesulfonamide]	96 nM	> 343
O=S(=O)(Nc1nccs1)c1cc(Cl)c(NC[C@H]2C[C@@H]3CN(C[C@@H]4CCCN4)C[C@@H]3C2)cc1F [Ex 6-8, 5-chloro-2-fluoro-4-[({(3aR,5R,6aS)-2-[(2S)-pyrrolidin-2-ylmethyl]octahydrocyclopenta[c]pyrrol-5-yl}methyl)amino]-N-1,3-thiazol-2-ylbenzenesulfonamide]	39 nM	> 850

Second part, led by results:

IC50 [1]	Compound	ratio of Nav 1.7 : Nav 1.5 potency (IonWorks) [2]
64 nM	COc1cccc(CC2(CNCCCCNc3cc(F)c(S(=O)(=O)Nc4nccs4)cc3Cl)CCCN2)c1 (centres unmarked) [Ex 1-34, 5-chloro-2-fluoro-4-{[4-({[2-(3-methoxy-benzyl)-pyrrolidin-2-yl]methyl}-amino)-butyl]amino}-N-1,3-thiazol-2-yl-benzenesulfonamide]	> 510
190 nM	N[C@@H]1CCCN(CCCCNc2cc(F)c(S(=O)(=O)Nc3nccs3)cc2Cl)C1 [Ex 1-35, 4-({4-[(3R)-3-aminopiperidin-1-yl]butyl}amino)-5-chloro-2-fluoro-N-1,3-thiazol-2-ylbenzenesulfonamide]	> 170
97 nM	N[C@H]1CCCN(CCCCNc2cc(F)c(S(=O)(=O)Nc3nccs3)cc2Cl)C1 [Ex 1-37, 4-({4-[(3S)-3-aminopiperidin-1-yl]butyl}amino)-5-chloro-2-fluoro-N-1,3-thiazol-2-ylbenzenesulfonamide]	> 340
48 nM	NC[C@H]1CCCN1CCCCNc1cc(F)c(S(=O)(=O)Nc2nccs2)cc1Cl [Ex 1-41, 4-({4-[(2R)-2-(aminomethyl)pyrrolidin-1-yl]butyl}amino)-5-chloro-2-fluoro-N-1,3-thiazol-2-ylbenzenesulfonamide]	> 690
79 nM	O=S(=O)(Nc1nccs1)c1cc(Cl)c(NCCCCN2CCCNCC2)cc1F [Ex 1-53, 5-chloro-4-{[4-(1,4-diazepan-1-yl)butyl]-amino}-2-fluoro-N-1,3-thiazol-2-yl-benzenesulfonamide]	> 418
17 nM	O=S(=O)(Nc1nccs1)c1cc(Cl)c(NCCCC(Cc2ccccc2)NC[C@@H]2CCCN2)cc1F (stereo partly drawn) [Ex 6-9, 5-chloro-2-fluoro-4-[(5-phenyl-4-{[(2S)-pyrrolidin-2-ylmethyl]amino}pentyl)amino]-N-1,3-thiazol-2-ylbenzenesulfonamide]	1530
41 nM	O=S(=O)(Nc1nccs1)c1ccc(NCCCCNC[C@@H]2CCCN2)c(C(F)(F)F)c1 [Ex 7-04, 4-[(4-{[(2S)-pyrrolidin-2-ylmethyl]amino}butyl)amino]-N-1,3-thiazol-2-yl-3-(trifluoromethyl)benzenesulfonamide]	> 800
27 nM	O=S(=O)(Nc1nccs1)c1ccc(NCCCCNC[C@@H]2CCCN2)c(Cl)c1 [Ex 7-12, 3-chloro-4-[(4-{[(2S)-pyrrolidin-2-ylmethyl]amino}butyl)amino]-N-1,3-thiazol-2-ylbenzenesulfonamide]	> 1200
59 nM	O=S(=O)(Nc1nccs1)c1cc(Cl)c(NCCCCNC[C@@H]2CC(F)(F)CN2)cc1F [Ex 8-2, (S)-5-chloro-4-((4-(((4,4-difluoropyrrolidin-2-yl)methyl)amino)butyl)amino)-2-fluoro-N-(thiazol-2-yl)benzenesulfonamide]	460
32 nM	O=S(=O)(Nc1nccs1)c1cc(Cl)c(NCCCCNC[C@@H]2C[C@@H](c3ccccc3)CN2)cc1F [Ex 8-4, 5-chloro-2-fluoro-4-{[4-({[(2S,4S)-4-phenyl-pyrrolidin-2-yl]methyl}-amino)butyl]amino}-N-1,3-thiazol-2-yl-benzenesulfonamide]	> 1030
40 nM	O=S(=O)(Nc1nccs1)c1cc(Cl)c(NCCCCNC[C@@H]2C[C@H](Oc3ccccc3)CN2)cc1F [Ex 8-5, 5-chloro-2-fluoro-4-{[4-({[(2S,4S)-4-phenoxypyrrolidin-2-yl]methyl}amino)butyl]-amino}-N-1,3-thiazol-2-yl-benzenesulfonamide]	425
87 nM	N#C[C@H]1CN[C@H](CNCCCCNc2cc(F)c(S(=O)(=O)Nc3nccs3)cc2Cl)C1 [Ex 8-7, 5-chloro-4-{[4-({[(2S,4R)-4-cyanopyrrolidin-2-yl]-methyl}amino)butyl]amino}-2-fluoro-N-1,3-thiazol-2-ylbenzenesulfonamide]	> 380
14 nM	O=S(=O)(Nc1nccs1)c1cc(Cl)c(NCCCCNC[C@H]2C[C@@H](c3ccccc3)CN2)cc1F [Ex 8-11, 5-chloro-2-fluoro-4-{[4-({[(2R,4S)-4-phenylpyrrolidin-2-yl]-methyl}amino)butyl]amino}-N-1,3-thiazol-2-yl-benzenesulfonamide]	> 2360
14 nM	O=S(=O)(Nc1nccs1)c1cc(Cl)c(NCCCCNCC2CCC(c3ccccc3)CN2)cc1F (centres unmarked) [Ex 8-14, 5-chloro-2-fluoro-4-[(4-{[(5-phenyl-piperidin-2-yl)-methyl]amino}butyl)amino]-N-1,3-thiazol-2-yl-benzenesulfonamide]	2290
63 nM	CO[C@H]1CN[C@H](CNCCCCNc2cc(F)c(S(=O)(=O)Nc3nccs3)cc2Cl)C1 [Ex 8-16]	> 520
